Laboratory results from paper PMC3632407 (Chemical communications (Cambridge, England), 2013).
Read-outs that look alike come from different tables or passages of the source. Where a SMILES comes first, the peptide text is derived from it.

Legend:
Format in all cases: cell-based
A. baumanii = system: A. baumanii
E. faecium = system: E. faecium
S. nterica = experiment: Minimal inhibitory concentration for bacteriocidal activity; conditions: MIC; strains in Supp. Info
P. aeruginosa = system: P. aeruginosa
K. pneumoniae = system: K. pneumoniae
MRSA = system: MRSA
E.coli = system: E.coli

## N=C(N)NCCC[C@H](NC(=O)[C@H](CS)NC(=O)[C@H](Cc1ccc(O)cc1)NC(=O)[C@H](Cc1c[nH]c2ccccc12)NC(=O)[C@H](CCCNC(=N)N)NC(=O)[C@@H](N)Cc1c[nH]c2ccccc12)C(N)=O [Complex 1, WRWYCR-NH2] (H-WRWYCR-NH2)
A. baumanii
  Minimal inhibitory concentration for bacteriocidal activity, A. baumanii: 132 µM
E. faecium
  Minimal inhibitory concentration for bacteriocidal activity, E. faecium: 8 µM
S. nterica
  Minimal inhibitory concentration for bacteriocidal activity, S. nterica: 8 µM
P. aeruginosa
  Minimal inhibitory concentration for bacteriocidal activity, P. aeruginosa: 33 µM
K. pneumoniae
  Minimal inhibitory concentration for bacteriocidal activity, K. pneumoniae: 66 µM
MRSA
  Minimal inhibitory concentration for bacteriocidal activity, MRSA: 66 µM
E.coli
  Minimal inhibitory concentration for bacteriocidal activity, E.coli: 17 µM

## NC[C@H]1O[C@H](O[C@H]2[C@H](O)[C@@H](O[C@H]3O[C@H](CO)[C@@H](O)[C@H](N)[C@H]3O)[C@H](N)C[C@@H]2N)[C@H](O)[C@@H](O)[C@@H]1O [kanamycin]
A. baumanii; MIC, strains in Supp. Info
  Minimal inhibitory concentration for bacteriocidal activity, A. baumanii: >264 µM
E. faecium; MIC, strains in Supp. Info
  Minimal inhibitory concentration for bacteriocidal activity, E. faecium: >264 µM
S. nterica
  Minimal inhibitory concentration for bacteriocidal activity, S. nterica: 1 µM
P. aeruginosa; MIC, strains in Supp. Info
  Minimal inhibitory concentration for bacteriocidal activity, P. aeruginosa: 33 µM
K. pneumoniae; MIC, strains in Supp. Info
  Minimal inhibitory concentration for bacteriocidal activity, K. pneumoniae: 66 µM
MRSA; MIC, strains in Supp. Info
  Minimal inhibitory concentration for bacteriocidal activity, MRSA: 264 µM
E.coli; MIC, strains in Supp. Info
  Minimal inhibitory concentration for bacteriocidal activity, E.coli: 8 µM
